Data reported in BindingDB's records for PubMed 11408545 (Glaxosmithkline, 2001).
“And” between values parts separate entries of the source, which are not always exact repeats. Equal values may be shown once.

Columns and labels:
[1] = target: T1, Alpha-2A adrenergic receptor [16-465] (Rattus norvegicus, UniProt P22909)
T1 construct: 16-465
T1 sequence (P22909 whole entry): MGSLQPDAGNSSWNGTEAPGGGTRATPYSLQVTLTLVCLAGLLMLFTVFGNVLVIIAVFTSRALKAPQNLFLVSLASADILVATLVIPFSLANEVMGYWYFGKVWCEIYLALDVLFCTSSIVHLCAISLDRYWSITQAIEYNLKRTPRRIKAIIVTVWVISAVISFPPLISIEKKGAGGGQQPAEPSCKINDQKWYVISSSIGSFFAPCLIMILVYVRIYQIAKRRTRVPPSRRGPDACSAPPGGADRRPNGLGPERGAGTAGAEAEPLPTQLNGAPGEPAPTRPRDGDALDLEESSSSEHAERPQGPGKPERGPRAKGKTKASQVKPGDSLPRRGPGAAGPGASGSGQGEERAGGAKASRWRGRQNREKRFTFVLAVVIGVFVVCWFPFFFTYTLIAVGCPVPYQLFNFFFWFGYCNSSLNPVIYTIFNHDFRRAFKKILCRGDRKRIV

[2] = target: T2, Alpha-2A adrenergic receptor (Homo sapiens, UniProt P08913)
T2 sequence (P08913 whole entry): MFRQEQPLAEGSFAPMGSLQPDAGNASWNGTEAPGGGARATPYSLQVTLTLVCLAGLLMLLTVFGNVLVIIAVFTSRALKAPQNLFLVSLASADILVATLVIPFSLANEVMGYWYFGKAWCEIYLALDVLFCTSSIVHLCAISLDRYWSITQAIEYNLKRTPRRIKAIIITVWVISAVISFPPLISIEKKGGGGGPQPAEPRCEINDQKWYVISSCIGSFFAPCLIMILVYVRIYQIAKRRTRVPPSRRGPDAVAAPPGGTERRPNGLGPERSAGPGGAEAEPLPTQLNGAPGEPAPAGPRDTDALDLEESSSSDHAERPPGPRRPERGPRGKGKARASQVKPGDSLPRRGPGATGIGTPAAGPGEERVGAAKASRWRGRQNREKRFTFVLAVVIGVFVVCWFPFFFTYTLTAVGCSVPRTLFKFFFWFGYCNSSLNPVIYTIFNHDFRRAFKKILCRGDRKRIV

[3] = target: T3, Alpha-2B adrenergic receptor (Oryctolagus cuniculus, UniProt O77830)
T3 sequence (O77830 whole entry): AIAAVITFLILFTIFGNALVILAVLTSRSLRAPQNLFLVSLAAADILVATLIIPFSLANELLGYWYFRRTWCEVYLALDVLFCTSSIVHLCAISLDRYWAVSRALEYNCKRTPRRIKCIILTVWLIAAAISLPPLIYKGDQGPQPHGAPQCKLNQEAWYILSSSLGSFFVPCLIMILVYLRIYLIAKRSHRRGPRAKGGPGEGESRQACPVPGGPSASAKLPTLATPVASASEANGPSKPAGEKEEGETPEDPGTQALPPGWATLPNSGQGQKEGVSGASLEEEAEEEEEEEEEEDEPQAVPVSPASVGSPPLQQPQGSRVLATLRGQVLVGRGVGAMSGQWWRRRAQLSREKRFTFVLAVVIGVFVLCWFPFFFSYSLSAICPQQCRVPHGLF

COC(=O)C1=COC(C)C2CN3CCc4c([nH]c5ccccc45)C3CC12 (stereo not given) [Ajmalicine]
Ki [1]: 1470 nM | Ki [2]: 47.6 nM | Ki [3]: 376 nM and 429 nM

COc1cc2nc(N3CCN(C(=O)c4ccco4)CC3)nc(N)c2cc1OC [[3H]-Minipress]
Ki [3]: > 10000 nM

COC1(C2=NCCN2)COc2ccccc2O1 (stereo not given) [RX821002]
Ki [1]: 0.95 nM | Ki [3]: 7.3 nM and 6.4 nM

Cc1cc(C(C)(C)C)c(O)c(C)c1CC1=NCCN1 [SMR000059324]
Ki [3]: 6.3 nM and 4.5 nM

CN1C[C@H](Cn2ccnc2-c2ccccc2)C[C@@H]2c3cccc4[nH]c(Br)c(c34)C[C@H]21 [BAM-1303]
Ki [1]: 313 nM | Ki [2]: 18.1 nM | Ki [3]: 95.3 nM and 46 nM

O=C1NCN(c2ccccc2)C12CCN(CC1COc3ccccc3O1)CC2 (stereo not given) [8-(2,3-Dihydro-benzo[1,4]dioxin-2-ylmethyl)-1-phenyl-1,3,8-triaza-spiro[4.5]decan-4-one]
Ki [1]: 92 nM | Ki [2]: 28.3 nM | Ki [3]: 169 nM and 129 nM

COc1cccc(OC)c1OCCNCC1Oc2ccccc2OC1c1ccccc1 (stereo not given) [NSC_185453]
Ki [1]: 142 nM | Ki [2]: 3.5 nM | Ki [3]: 5.3 nM and 11.8 nM

NCC(O)c1ccc(O)c(O)c1 (stereo not drawn) [Noradrenaline,(+)]
Ki [3]: 284 nM and 57 nM

CC(C)=CCOc1ccc(Cl)c2c1CCN(C)CC2 [SK&F-104078]
Ki [1]: 244 nM | Ki [2]: 30.4 nM | Ki [3]: 292 nM and 191 nM

Cc1ccc(N(CC2=NCCN2)c2cccc(O)c2)cc1 [SMR000059054]
Ki [3]: 24.1 nM and 18.4 nM

COc1ccccc1N1CCN(CCC2C(=O)c3ccccc3C(C)(C)C2=O)CC1 (stereo not given) [NSC_122211]
Ki [1]: 484 nM | Ki [2]: 373 nM | Ki [3]: > 10000 nM

CN(C)CCCN1c2ccccc2Sc2ccc(Cl)cc21 [[3-(2-Chloro-phenothiazin-10-yl)-propyl]-dimethyl-amine(Chlorpromazine)]
Ki [3]: 2690 nM and 3130 nM
